Measured values: article PMC2845980 (Bioorganic & medicinal chemistry, 2010)
Like-named read-outs stand apart in the source and are kept apart here.

Key:
tgDHFR = tgDHFR (Toxoplasma gondii, UniProt Q07422); experiment: Spectrophotometric DHFR inhibition assay, T. gondii enzyme; assay type: biochemical; conditions: IC50 rlDHFR / IC50 tgDHFR
Solubility = assay type: physicochemical; conditions: qualitative statement
[1] = first study, i.p. 50 mg/kg/day, mouse
[2] = second study, i.p. 50 mg/kg/day, mouse

tgDHFR, sequence (Q07422 whole entry): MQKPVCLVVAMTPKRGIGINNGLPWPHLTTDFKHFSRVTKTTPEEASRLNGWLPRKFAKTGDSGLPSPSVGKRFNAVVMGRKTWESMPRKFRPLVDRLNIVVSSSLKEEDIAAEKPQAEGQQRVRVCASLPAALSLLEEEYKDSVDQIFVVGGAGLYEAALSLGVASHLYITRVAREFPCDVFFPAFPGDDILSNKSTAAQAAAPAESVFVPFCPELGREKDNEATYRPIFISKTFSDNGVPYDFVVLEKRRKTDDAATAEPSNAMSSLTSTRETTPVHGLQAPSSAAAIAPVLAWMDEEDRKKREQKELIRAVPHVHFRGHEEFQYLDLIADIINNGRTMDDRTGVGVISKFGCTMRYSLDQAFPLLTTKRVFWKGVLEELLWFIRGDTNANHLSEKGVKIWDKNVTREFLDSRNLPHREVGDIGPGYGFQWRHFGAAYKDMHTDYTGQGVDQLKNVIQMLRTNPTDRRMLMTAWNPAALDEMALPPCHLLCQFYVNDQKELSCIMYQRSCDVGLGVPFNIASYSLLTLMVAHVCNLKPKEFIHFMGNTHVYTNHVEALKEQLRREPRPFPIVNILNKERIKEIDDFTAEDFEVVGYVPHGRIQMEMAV

Compound | selectivity ratio rl/tg (tgDHFR) | solubility properties (Solubility) | Mean counts of T. gondii per 1000x field in peritoneal harvest (T. gondii; [1]) [counts per 1000x field] | Median counts of T. gondii per 1000x field in peritoneal harvest (T. gondii; [1]) [counts per 1000x field] | gross toxicity in treated mice (T. gondii; mouse, in vivo, ip, 50 mg/kg/day) | reduction of the median counts per 1000x field versus control (T. gondii; second study, i.p. 50 mg/kg/day) | Mean counts of T. gondii per 1000x field in peritoneal harvest (T. gondii; [2]) [counts per 1000x field] | Median counts of T. gondii per 1000x field in peritoneal harvest (T. gondii; [2]) [counts per 1000x field]
Cc1c(Sc2ccc3ccccc3c2)[nH]c2nc(N)nc(N)c12 [Compound 90, 2,4-Diamino-5-methyl-6-(2-naphthylthio)pyrrolo[2,3-d]pyrimidine] | 5 | – | – | – | – | – | – | –
Cc1cccc(C)c1Sc1[nH]c2nc(N)nc(N)c2c1C [Compound 91, 2,4-Diamino-5-methyl-6-(2′,6′-dimethylphenylthio)pyrrolo[2,3-d]pyrimidine] | – | poor solubility properties | 12.5 | 7.0 | no gross evidence of toxicity | more than two-fold | 8.9 | 5.0
Cc1cccc(C)c1Sc1[nH]c2nc(N)nc(N)c2c1C.Cl [Compound 95, 2,4-Diamino-5-methyl-6-(2′,6′-dimethylphenylthio)pyrrolo[2,3-d]pyrimidine hydrochloride salt] | – | more soluble | – | – | – | – | 2.4 | 1.0
